What was measured:
[1] = test system: Escherichia coli strain MG1655; test: Bactericidal kinetic test towards E. coli MG1655; type: cell-based; conditions: HEPES buffer 0.04 M pH 7.4, 26 °C, ca. 10^6 CFU/ml, concentrations of Table 1 (composite 50.0 ppm, AgNO3 0.1 ppm, CHD 0.75 ppm)
Experimental: A wild-type Escherichia coli strain MG1655 was used as a target organism to evaluate the bactericidal efficacy of the active ingredients i.e. CHD, metallic and ionic Ag and the CHD@Ag composite. Bacteria were maintained on MacConkey agar plates at […]. Prior to each experiment, an overnight culture was prepared by seeding single colonies into 30 ml of Luria Bertani (LB) broth at 37° C. with shaking. This overnight culture was then washed three times by centrifugation (10 min, 4850 rpm, at 25° C.) and resuspended in HEPES buffer (0.04M, pH 7.4). The resulting washed pellet was resuspended in HEPES and brought to an optical density (OD590) of 0.3 which corresponds to ca. 10^8 CFU/ml. Enumeration of bacteria was performed by serial dilution and plating via the pour-plate technique. The inoculated plates were incubated at 37° C. for 24 h and bacterial concentrations were determined by enumerating the resulting CFUs. The bactericidal kinetic tests were carried out in five acid-washed 500 ml Erlenmeyer flasks filled with 200 ml HEPES buffer. The flasks were capped with dense paper caps to allow oxygen supply. Typically, the active ingredients at the desired concentrations and combinations were added first and then 2.0 ml of the E. coli suspension was added to final concentration of ca. 10^6 CFU/ml. The active ingredients included one of the following: CHD@Ag composite, MeOH-extracted composite, AgNO3 solution, CHD solution and combinations thereof in final concentrations and the amounts which are summarized in Table 1. [table] The vessels were kept in an incubated shaker at 26° C. under dark conditions. The disinfection kinetics were followed by sequentially sampling 1.0 ml aliquots form the vessels at the designated times. These samples were neutralized by dilution (1:1) with a neutralizing solution (0.2% w/w sodium thioglycolate, 1.9% w/w sodium thiosulphate, 1% w/w Tween 80, 1.4% w/w lecithin) for 5 min. The efficiency of this neutralization procedure was validated in separate control experiments. […] The plates were incubated at 37° C. for 24 h and bacterial colonies were counted. […]

P. aeruginosa PU21 = test: Bactericidal kinetic test towards P. aeruginosa PU21; type: cell-based, Pseudomonas aeruginosa; conditions: FIG. 8

Row | Compound | biocidal activity towards E. coli MG1655 [1] | biocidal activity towards E. coli MG1655 ([1]; listed as CHD solution) | bactericidal effect towards P. aeruginosa PU21 (P. aeruginosa PU21)
1 | N=C(NCCCCCCNC(=N)NC(=N)Nc1ccc(Cl)cc1)NC(=N)Nc1ccc(Cl)cc1.O=C(O)[C@H](O)[C@@H](O)[C@H](O)[C@H](O)CO.O=C(O)[C@H](O)[C@@H](O)[C@H](O)[C@H](O)CO [CHD, Chlorhexidine digluconate] | only slightly affected | only very weak biocidal activity | weak bactericidal effect
2 | O=[N+]([O-])[O-].[Ag+] [Ag^+, AgNO3] | no biocidal activity |  | 
